What all share (assay type): cell-based
In one experiment the test system is TDP-43 splicing function. The experiment in a line: qRT-PCR of TDP-43 sentinel transcripts (STMN2, ELAVL3, PFKP) in MG-132 challenged human motor neurons. Further details: effect of stressor on splicing changes associated with TDP-43 loss of function (qPCR): dose or concentration left out as unconfirmed. The conditions noted are these: human motor neurons, relative to unstressed. As for the experimental part:
(§1) Cell culture and differentiation of iPS Cells into motor neurons. Pluripotent stem cells were grown with mTeSR Plus medium on tissue culture dishes coated with Matrigel, and maintained in 5% CO2 incubators at 37° C. Stem cells were passaged as small aggregates of cells after 1 mM EDTA treatment. […] was added to the cultures for 16-24 h after dissociation to prevent cell death. The iP11NA iPS cell line was acquired from ALSTEM. This cell line was generated from pre-made footprint-free human iPS cells with DOX inducible Ngn2 that has been stably integrated into the human AAVS1 “Safe Harbor” site, and provides a convenient means to differentiate human iPS cells into neurons rapidly and efficiently. Motor neuron differentiation was achieved using a modified 5-day strategy.
(§2) This approach relies on neural induction through small molecule inhibition of SMAD signaling, accelerated neural differentiation through forced Ngn2 expression, and motor neuron patterning through the activation of retinoic acid and Sonic Hedgehog signaling pathways. In brief, pluripotent stem cells were dissociated to single cells using accutase and plated at a density of 80,000 cells per cm^2 on Matrigel-coated culture plates with mTeSR Plus medium supplemented with ROCK inhibitor (10 μM Y-27632, ATCC). When cells reached 50% confluency, medium was changed to differentiation medium BrainPhys medium supplemented with N2-A, SM1, […]. This time point was defined as day 0 (d0) of motor neuron differentiation. Treatment with small molecules was carried out as follows: 2 μg/mL Doxycyline, 10 μM SB431542, 100 nM LDN-193189, […] and 1 μM Smoothend agonist and 10 uM Edu. The full list of materials and their descriptions is included below in Table 5.
Total RNA was isolated from d14 motor neurons for qRT-PCR assays using TaqMan™ Fast Advanced Cells-to-CT™ Kit according to manufacturer's instructions. 7500 neurons per well of 96-well culture were routinely used for processing. qRT-PCR was then performed using multiplex assays from IDT using PrimeTime™ Gene Expression Master Mix (IDT) on a QuantStudio6Pro system. Quantitative levels for all genes assayed were normalized using GAPDH expression. […] Primers and probes used in this study are in Table 5.
To this end, we first examined whether proteasome inhibition, which triggers TDP-43 nuclear depletion, also leads to splicing defects associated with TDP-43 loss-of function. For comparison, we also treated human motor neurons with puromycin, which recruits TDP-43 to stress granules in the cytoplasm. We chose to analyze several transcripts that have relevant connections to ALS biology including STMN26,12, PFKP19, and ELAVL320,21. We used quantitative reverse transcription-polymerase chain reaction (qRT-PCR) to validate that in MG-132-treated motor neurons these transcripts were altered like in ALS patients.
Using this method, we next obtained RNA from independent motor neuron biological replicates after proteasome inhibition and Compound 183 treatment to determined by qRT-PCR the relative abundance of these transcripts. […] A dose-responsive effect was further tested for Compound 183 using qRT-PCR in this model. […] Collectively, the data support the notion that Compound 183 promotes TDP-43 nuclear function under proteotoxic stress.
For orientation: Quantitative PCR measures a nucleic acid by following its amplification.

The test system of experiment [1] is TDP-43 nuclear localization. The experiment is described as follows: TDP-43 localization analysis by immunofluorescence in MG-132 challenged iP11NA human motor neurons. As to conditions: 1 μM MG-132 for 20 hours, human motor neurons, vs unstressed. Here is the method:
as §1
as §2, with “The full list of materials and their descriptions is included below in Table 5.” left out
A dose-responsive effect was further tested for Compound 183 using quantitative imaging analysis on the CellInsight™ CX7 High Content Analysis Platform. By comparing the intensity of TDP-43 staining in the nucleus and cytoplasm of human motor neurons, we determined Compound 183 could maintain nuclear TDP-43 from 370 nM-10 μM in the proteasome challenged motor neurons (see FIG. 2).

Another experiment deals with insoluble TDP-43. The experiment in a line: Cell fractionation and immunoblot of TDP-43 in MG-132 challenged human motor neurons. The conditions noted are these: MG-132 1 μM, vs unstressed. As for the experimental part: Cell culture and differentiation of iPS Cells into motor neurons. Pluripotent stem cells were grown with mTeSR Plus medium on tissue culture dishes coated with Matrigel, and maintained in 5% CO2 incubators at 37° C. Stem cells were passaged as small aggregates of cells after 1 mM EDTA treatment. […] was added to the cultures for 16-24 h after dissociation to prevent cell death. The iP11NA iPS cell line was acquired from ALSTEM. This cell line was generated from pre-made footprint-free human iPS cells with DOX inducible Ngn2 that has been stably integrated into the human AAVS1 “Safe Harbor” site, and provides a convenient means to differentiate human iPS cells into neurons rapidly and efficiently. Motor neuron differentiation was achieved using a modified 5-day strategy. […]
For analysis of TDP-43 cellular distribution, d14 motor neurons were lysed with Thermo Subcellular Protein Fractionation Kit for cultured cells and processed according to the manufacturer's instructions. […] Fluorescent secondary antibodies were used for band detection and the Kaleidoscope precision plus protein ladder for size estimation. iBright FL1500 imaging system and software were used to quantitate protein band signal. […]
Background: A western blot detects proteins with antibodies after separation by electrophoresis.

For a further experiment, the system named is tau stress granules. The experiment in a line: SY5Y-tT1 tau arsenite assay (tau stress granules per cell). The conditions noted are these: SY5Y-tT1 cells, 2 hours compound, 90 minutes arsenite, 50% reduction of granules per cell, read-out: IC50, Inhibitor Activity of Tau Stress Granules. Here is the method:
Example 91: In Vitro Efficacy Assay of Exemplary Compounds—SY5Y-tT1 Tau Arsenite/Thapsigargin Assay
• Before harvesting cells—checked to see if cells are ~80% confluency in their flask • 1. Aspirated growth media from flask. • 2. Added 4 mL of (0.25%) trypsin-EDTA (REF: 25200-056) • 3. Placed in 37° C. incubator for 5 minutes. • 4. Removed from incubator and added 11 mL growth media, washing any remaining cells adhered to the bottom of the flask. • 5. Transferred cell containing media to a 50 mL conical tube and spun for 5 minutes at 800 rpm. • 6. Aspirated supernatant and added 5 mL of growth media to cell pellet, triturating to make a homogenous cell solution. • 7. After counting cells, followed one of these plating paradigms: • (A) If treating with arsenite, plated cells at […] with tetracycline solution (5 mg/mL) added to cell solution at 1:5000 • (B) If treating with thapsigargin, plated cells at 4,000 cells/well with tetracycline solution (5 mg/mL) added to cell solution at 1:5000 • 8. Incubated at 37° C. for 48 hours.
• Solubilized all compounds to 10 mM prior to making dilution plates • 1. To a 96-well U-bottom plate (Falcon Non-Tissue Culture Treated Plates REF: 351177) added 120 μL growth media to all 96 wells, with an additional 58.2 μL to row A. • 2. Added 1.8 μL of 10 mM compound stock to wells A1-11, adding 1.8 μL of 10 mM PERKi stock (Selleck Chemistry GSK2606414 Cat No. S7307) as the control. • 3. Serially diluted 60 μL from row A down through each row, finishing with 180 μL total volume in row H. • 4. Transferred 12.5 μL of each dilution plate well to the correlating wells in cell plate, being careful not to touch cells adhered to bottom of the plate. • 5. Incubated for 2 hours.
• 1. Added 720 μL of 0.05 M sodium arsenite solution (CAS #: 7784-46-5) to 10 mL of growth media for a final concentration of […] arsenite solution, mix well. • 2. Added 12.5 μL of arsenite solution to all wells of compounds treated plate intended for arsenite treatment. • 3. Incubated at 37° C. for 90 minutes.
• Before beginning this part of the protocol: • Made 1×PBS by diluting 10× stock (10×, Phosphate buffered saline, Fisher #BP399— • 4) in sterile deionized water. • Diluted paraformaldehyde (16% Paraformaldehyde solution, Electron Microscopy Sciences #15710-S) to 4% in 1×PBS. • Diluted Hoechst stain (Life Technologies #H3570) 1:10,000 in 1×PBS (1 μL Hoechst per 10 mL 1×PBS). • Both solutions were protected from light. • 1) After compound treatment, aspirated media from cell plates and gently added in 50 μL of 4% paraformaldehyde for 10 min protected from light at room temperature. • 2) Aspirated paraformaldehyde solution and gently added 50 μL of 1:10,000 Hoechst solution to each well and incubated for 10 min protected from light at room temperature. • 3) Aspirated Hoechst solution and gently added 100 μL 1×PBS. Cover the plate with aluminum film (VWR #60941-126). • 4) Stored at 4° C. or used immediately for imaging on ThermoFisher CX7 imager.
Exemplary compounds of the disclosed herein were evaluated for efficacy for inhibitor activity of tau stress granules in the arsenite assay and quantified as drug concentration providing a 50% reduction (IC50) of granules per cell is shown in Table 4.
In Table 4 below, A indicates an IC50 (μM)<0.5 μM, B indicates an IC50 (μM) 0.5 μM to <1 μM, C indicates an IC50 (μM) 1 μM to <2 μM, and D indicates an IC50 (μM) 2 μM to <6 μM.

The subject of the next experiment is TDP-43 aggregation. The experiment is described as follows: TDP-43 aggregation assay in SY5Y TDP-43WT cells (high content imaging). As to conditions: Homo sapiens, tetracycline induction 24 hrs, 1 hour compound pre-treatment, sodium arsenite 23 hrs, 8-point dose curve, percentage of cells with TDP-43 aggregates, read-out: IC50, Inhibition of TDP-43 Aggregation. The procedure, abridged:
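Tetracycline-inducible eGFP-tagged wild-type human TDP-43 in SH-SY5Y cells, induced 24 h ([…]), compound pre-treated 1 h, then sodium arsenite […] for 23 h. Fixed cells imaged; percentage of DAPI-counted cells with aggregates gives IC50 from 8-point curves.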

Where a SMILES comes first, the peptide text is derived from it. The star is where a group is joined. Cbz = O=C(OCc1ccccc1)*

One may read the IC50 as the concentration needed to halve the response being measured.

`COc1ccc(C[C@H](N)C(=O)N[C@H]2[C@@H](O)[C@H](n3cnc4c(N(C)C)ncnc43)O[C@@H]2CO)cc1` [puromycin, reference compound]: in the experiment with TDP-43 splicing function, the “effect of stressor on splicing changes associated with TDP-43 loss of function (qPCR)” value was “failed to induce transcription changes consistent with TDP-43 loss of function”.

In the case of `CC(C)C[C@@H](C=O)NC(=O)[C@H](CC(C)C)NC(=O)[C@H](CC(C)C)NC(=O)OCc1ccccc1` [MG-132, reference compound] (Cbz-Leu-Leu-Leu-aldehyde), the “effect of stressor on nuclear TDP-43 staining (immunofluorescence)” value in experiment [1] is “induced a loss of nuclear TDP-43 staining”. For the same compound, in the experiment on TDP-43 splicing function (MG-132 1 μM), the “effect of stressor on cryptic splicing of STMN2, ELAVL3, PFKP (qPCR)” value is reported as “strong induction of cryptic splicing”; the “effect of stressor on normal transcript levels (qPCR)” value was “decreased levels for normal STMN2 as well as the cryptic exon-disrupted splice junctions in PFKP and ELAVL3”. The “effect of stressor on TDP-43 distribution between fractions (immunoblot)” value with insoluble TDP-43 is “significant change in TDP-43 distribution from the soluble, nuclear compartment to the insoluble fraction”.

Consider `Cc1cc(-c2ccc(C3CCN(C)CC3)cc2)sc1C(=O)N1CC[C@H](N)C1` [Compound 201, (S)-(3-aminopyrrolidin-1-yl)(3-methyl-5-(4-(1-methylpiperidin-4-yl)phenyl)thiophen-2-yl)methanone], for which the IC50 with tau stress granules and with TDP-43 aggregation was under 500 nM in each case.

Take `Cc1cc(-c2ccc3c(c2)CNCC3)sc1C(=O)N1CC[C@H](N)C1` [Compound 198, (S)-(3-aminopyrrolidin-1-yl)(3-methyl-5-(1,2,3,4-tetrahydroisoquinolin-7-yl)thiophen-2-yl)methanone]: the IC50 with tau stress granules is 2000 to 6000 nM; in the experiment on TDP-43 aggregation, under 500 nM.

Consider `CCCN1CCC(c2ccc(-c3cc(C)c(C(=O)N4CC[C@H](N)C4)s3)cc2)CC1` [Compound 182, (S)-(3-aminopyrrolidin-1-yl)(3-methyl-5-(4-(1-propylpiperidin-4-yl)phenyl)thiophen-2-yl)methanone], for which the IC50 in the experiment on tau stress granules and in the experiment on TDP-43 aggregation was under 500 nM in each case.

As to `Cc1cc(-c2ccc(C3CCN(CC4CCCOC4)CC3)cc2)sc1C(=O)N1CC[C@H](N)C1` (stereo partly drawn) [Compound 139, ((S)-3-aminopyrrolidin-1-yl)(3-methyl-5-(4-(1-((tetrahydro-2H-pyran-3-yl)methyl)piperidin-4-yl)phenyl)thiophen-2-yl)methanone], the IC50 was 500 to 1000 nM in the experiment with tau stress granules and under 500 nM in the experiment with TDP-43 aggregation.

The record behind these values is patent US20260258025A1, “INHIBITORS OF TDP-43 AND TAU AGGREGATION” (Aquinnah Pharmaceuticals, inc., priority 2023, published 2026).
